{"source": "patent US10570401B2", "about": "“Compositions and method for destabilizing, altering, and dispersing biofilms” (priority 2013, dated 2020)", "key": {"[1]": {"tested_on": "bacterial biofilm communities", "assay": "L-arginine versus D-arginine on bacterial biofilm communities", "type": "cell-based", "settings": "FIG. 11", "from_the_text": "Therefore the destabilizing effects of arginine are specific to the L-form."}, "[2]": {"tested_on": "pre-formed multi-species oral biofilms"}, "saliva derived community": {"tested_on": "saliva derived community", "assay": "Community composition of saliva-derived biofilms by 454 pyrosequencing", "type": "cell-based", "method": "Black-colored bars represent data derived from the analysis of biofilms developed in flowing non-supplemented saliva while the grey-colored bars represent data derived from the analysis of biofilms developed in 500 mM supplemented saliva. (B) Showing changes in phyla (color coding as before). (C) Showing changes in composition of genera (key is from left to right in order from bottom to top in bar; Neisseria, Granulicatella, Streptococcus, etc).\n(§1) This example describes the impact of L-arginine on oral biofilms that contain species grown under conditions representative of the human oral cavity. […] Destabilization was expressed as loss of biofilm structure and change in bacterial community membership, as determined by confocal laser scanning microscopy and 454 pyrosequencing."}, "S. gordonii biofilms": {"tested_on": "S. gordonii biofilms", "assay": "S. gordonii biofilm formation in saliva, Bioflux microfluidics system", "type": "cell-based", "method": "(§2) The effects of arginine-dependent dosing of S. gordonii biofilms is assessed in a modified Bioflux microfluidics system. Human saliva is collected and pooled from ≥6 different volunteers (Cuadra-Saenz et al., Microbiology. 2012; 158(Pt 7):1783-95), diluted to 25%, and additional supplements (e.g. sucrose, haemin, BHI) added as required to simulate different conditions. Note, we grow robust biofilms in even non-supplemented saliva and pooling the saliva minimizes variation in salivary components. To obtain an indication of free arginine levels in pooled saliva, arginine is measured in ≥3 different pooled saliva samples using standard techniques (Jakubovics et al., supra; Van Wuyckhuyse et al., Journal of dental research. 1995; 74(2):686-90). The 24 channels of the Bioflux system are coated with saliva, inoculated with monocultures of S. gordonii (or multi-species biofilms harvested form saliva) and biofilms are developed at 37° C. with cell free saliva. After 20 h, cells are stained with live/dead stain and visualized using a Leica SPE CLSM. Biomass and structural biofilm parameters are quantified using COMSTAT (Heydorn et al., Microbiology. 2000; 146 (Pt 10):2395-407), ImageJ (Collins, Biotechniques. 2007; 43(1 Suppl):25-30), and IMARIS software (Bitplane, Switzerland)."}, "[3]": {"tested_on": "AI-2 production by multi-species biofilms", "assay": "AI-2 bioluminescence assay with Vibrio harveyi BB170 on microfluidics efflux of multi-species biofilms", "type": "cell-based", "settings": "fold induction of bioluminescence, increasing arginine concentrations (FIG. 10)", "from_the_text": "The AI-2 data are normalized to the “control” (non-supplemented saliva).\nValues were produced by first taking averages of 4 trials at each concentration and dividing them by the average for the negative control, creating an induction number. […] High AI-2 may also have a destabilizing effect on the community, which could explain or contribute to the structural changes seen in the biofilms."}, "[4]": {"tested_on": "multi-species oral biofilm communities", "assay": "Multi-species oral biofilms in static (non-flowing) microplate system, CLSM", "type": "cell-based", "settings": "500 mM, static microplate system (FIG. 6)", "from_the_text": "Upper renderings (A1-H1) are of the x-y plane. Middle renderings (A2-H2) are of the x-z plane. Lower renderings (A3-H3) represent an angled view (x-y-z). Bars represent 50 μm."}, "[5]": {"tested_on": "multi-species oral biofilms", "assay": "Multi-species oral biofilms developed 20 h in flowing saliva (Bioflux microfluidic system), CLSM live/dead", "type": "cell-based", "method": "as §2, §1\nGreen signal indicates viable live cells and red signal indicates damaged/dead cells. […] Data derived from at-least 18 renderings across three experiments and standard deviations are shown in brackets. *P<0.05; **P<0.01; […]: significant differences from the CFS control."}, "S. gordonii DL1": {"tested_on": "S. gordonii DL1", "assay": "Fluorescent reporter plasmid (pPE1010) expression in S. gordonii DL1 biofilms on exogenous AI-2", "type": "cell-based", "settings": "exogenously added AI-2 (FIG. 12B)", "from_the_text": "A plasmid (See e.g., FIG. 12) was utilized to monitor expression of reporter genes in the presence of arginine or AI-2. The pPE1010 backbone described in England et al. (Proc Natl Acad Sci USA. 2004 Nov. 30; 101(48):16917-22. Epub 2004 Nov. 16) was modified to express fluorescent genes such as GFP or Mcherry in S. gordonii DL1 or other species of streptococci. Specifically, promoters from differentially regulated genes are inserted upstream of a GFP or Mcherry gene harbored on pPE1010 (or similar streptococcal plasmid shuttle vector system) to be differentially expressed (FIGS. 12A and 12B). […] The plasmid provides constitutive-producing fluorescent probes for monitoring bacteria in biofilms and reporter systems that report arginine (or AI-2) concentrations in biofilms such as those found in dental plaque biofilms."}}, "data": [{"compound": "N=C(N)NCCC[C@@H](N)C(=O)O", "note": "[D-arginine, reference compound]", "values": [{"measurement": "disruption of bacterial biofilm communities", "setting": "[1]", "value": "does not have the same effect"}]}, {"compound": "N=C(N)NCCC[C@H](N)C(=O)O", "note": "[L-arginine]", "values": [{"measurement": "destabilization of pre-formed biofilms", "setting": "[2]; 500 mM (FIG. 8)", "value": "destabilizes pre-formed multi-species oral biofilms of differing developmental age"}, {"measurement": "penetration of CPC into biofilm", "setting": "[2]; 500 mM L-arginine, CPC 0.01 or 0.05% (FIG. 9)", "value": "enhance the penetration of CPC"}, {"measurement": "proportion of Veillonella species and non-cariogenic streptococci in biofilms", "setting": "saliva derived community; 500 mM treated biofilms", "value": "increased"}, {"measurement": "bacterial diversity (operational taxonomic units, OTU)", "setting": "saliva derived community; prolonged exposure to 500 mM (FIG. 5A)", "value": "increase in bacterial diversity"}, {"measurement": "extent of biofilm present", "setting": "S. gordonii biofilms; 500 mM arginine, saliva, 20 h (FIG. 3)", "value": "significantly reduce the extent of biofilm present"}, {"measurement": "biofilm formation by S. gordonii", "setting": "S. gordonii biofilms; high (millimolar) concentrations of arginine, dose-dependent", "value": "abrogate biofilm formation by S. gordonii"}, {"measurement": "amount of AI-2 produced from multi-species biofilms", "setting": "[3]", "value": "increases as the concentrations of arginine used to treat them increases"}, {"measurement": "biofilm architecture", "setting": "[4]", "value": "makes the biofilm more diffuse with respect to architecture"}, {"measurement": "biofilm biomass", "setting": "[4]", "value": "reduce biofilm biomass"}, {"measurement": "killing", "setting": "[4]", "value": "No substantial killing was observed"}, {"measurement": "disruption of bacterial biofilm communities", "setting": "[1]", "value": "disrupts bacterial biofilm communities"}]}, {"compound": "Cl.N=C(N)NCCC[C@H](N)C(=O)O", "note": "[LAHCL, L-arginine monohydrochloride]", "values": [{"measurement": "changes in pH", "setting": "[5]; HCl balanced L-arginine in human saliva", "value": "No substantial changes in pH"}, {"measurement": "destabilization of oral biofilms (loss of biofilm structure, change in community membership)", "setting": "[5]; human saliva inoculum, 25% filter-sterilized saliva", "value": "destabilizes oral biofilms in a concentration dependent manner"}, {"measurement": "antimicrobial effects", "setting": "[5]; only detected as a consequence of biofilm perturbation", "value": "Very limited antimicrobial effects"}]}, {"compound": "autoinducer-2 [AI-2]", "values": [{"measurement": "reporter expression from 50S ribosomal protein (SGO_1192) promoter", "setting": "S. gordonii DL1", "value": "minimal differential expression"}, {"measurement": "reporter expression from catabolite control protein A (SGO_0773; ccpA) promoter", "setting": "S. gordonii DL1", "value": "drastically different gene expression"}]}]}
